The NIST ThermoML archive (doi:10.1016/j.jct.2005.07.015)

Conditions: Liquid, Closed cell (Static) method

CCO [ethanol]
Conditions	vapor or sublimation pressure [kPa]
298.15 K	7.878
303.15 K	10.47
308.15 K	13.77
313.15 K	17.91
318.15 K	23.07
323.15 K	29.46
